These compounds were tested on androgen receptor (AR) in LNCaP and/or VCaP cells (assay: Androgen Receptor ELISA assay (AR degradation)). Details: degradation of AR ELISA in LNCaP and/or VCaP cells; Table 2C; read-out: DC50 Code*.
Type: cell-based
Outline: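 VCaP cells grown ≥3 days, then treated 5 h with compound in media containing 1 nM R1881 (10× stock). Cells lysed and AR quantified by sandwich ELISA (mouse AR detection Ab, HRP anti-mouse, TMB). DC50 and Dmax derived from AR degradation.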

DC50, < 1 nM:
Cc1cc(O[C@H]2C(C)(C)[C@H](NC(=O)c3ccc(N4CCC(CN(C)[C@@H]5CC[C@H](Oc6ccc7c(c6)C(=O)N(C6CCC(=O)NC6=O)C7=O)C5)CC4)cc3)C2(C)C)cc(C)c1C#N (stereo partly drawn) [compound 166, N-((1r,3R)-3-(4-cyano-3,5-dimethylphenoxy)-2,2,4,4-tetramethylcyclobutyl)-4-(4-((((1R,3S)-3-((2-(2,6-dioxopiperidin-3-yl)-1,3-dioxoisoindolin-5-yl)oxy)cyclopentyl) (methyl)amino)methyl)piperidin-1-yl)benzamide]
Cc1cc(O[C@H]2C(C)(C)[C@H](NC(=O)c3ccc(N4CCO[C@H](CN5CCN(c6ccc7c(c6)C(=O)N(C6CCC(=O)NC6=O)C7=O)CC5)C4)cc3)C2(C)C)cc(C)c1C#N (stereo partly drawn) [compound 167, N-((1r,3R)-3-(4-cyano-3,5-dimethylphenoxy)-2,2,4,4-tetramethylcyclobutyl)-4-((2R)-2-((4-(2-(2,6-dioxopiperidin-3-yl)-1,3-dioxoisoindolin-5-yl)piperazin-1-yl)methyl)morpholino) benzamide]
CCN(CC1CCN(c2ccc(C(=O)N[C@H]3C(C)(C)[C@H](Oc4cc(C)c(C#N)c(C)c4)C3(C)C)cc2)CC1)[C@H]1C[C@H](Oc2ccc3c(c2)C(=O)N(C2CCC(=O)NC2=O)C3=O)C1 (some centres unmarked) [compound 168, N-((1r,3r)-3-(4-cyano-3,5-dimethylphenoxy)-2,2,4,4-tetramethylcyclobutyl)-4-(4-((((1r,3r)-3-((2-(2,6-dioxopiperidin-3-yl)-1,3-dioxoisoindolin-5-yl)oxy)cyclobutyl) (ethyl)amino)methyl)piperidin-1-yl) benzamide]
Cc1cc(O[C@H]2C(C)(C)[C@H](NC(=O)c3ccc(N4CCO[C@@H](CN5CCN(c6ccc7c(c6)C(=O)N(C6CCC(=O)NC6=O)C7=O)CC5)C4)cc3)C2(C)C)cc(C)c1C#N (stereo partly drawn) [compound 171, N-((1r,3S)-3-(4-cyano-3,5-dimethylphenoxy)-2,2,4,4-tetramethylcyclobutyl)-4-((2S)-2-((4-(2-(2,6-dioxopiperidin-3-yl)-1,3-dioxoisoindolin-5-yl)piperazin-1-yl)methyl)morpholino) benzamide]
Cc1cc(O[C@H]2C(C)(C)[C@H](NC(=O)c3ccc(N4CCC(CN5CCC[C@H]5COc5ccc6c(c5)C(=O)N(C5CCC(=O)NC5=O)C6=O)CC4)cc3)C2(C)C)cc(C)c1C#N (stereo partly drawn) [compound 172, N-((1r,3S)-3-(4-cyano-3,5-dimethylphenoxy)-2,2,4,4-tetramethylcyclobutyl)-4-(4-(((2S)-2-(((2-(2,6-dioxopiperidin-3-yl)-1,3-dioxoisoindolin-5-yl)oxy)methyl)pyrrolidin-1-yl)methyl)piperidin-1-yl)benzamide]
Cc1cc(O[C@H]2C(C)(C)[C@H](NC(=O)c3ccc(N4CCC(CN5CCOC[C@@H]5CCOc5ccc6c(c5)C(=O)N(C5CCC(=O)NC5=O)C6=O)CC4)cc3)C2(C)C)cc(C)c1C#N (stereo partly drawn) [compound 174, N-((1r,3S)-3-(4-cyano-3,5-dimethylphenoxy)-2,2,4,4-tetramethylcyclobutyl)-4-(4-(((3S)-3-(2-((2-(2,6-dioxopiperidin-3-yl)-1,3-dioxoisoindolin-5-yl)oxy)ethyl)morpholino)methyl)piperidin-1-yl)benzamide]
Cc1cc(O[C@H]2C(C)(C)[C@H](NC(=O)c3cnc(N4CC5(CC(CN(C(C)C)[C@H]6C[C@H](Oc7ccc8c(c7)C(=O)N(C7CCC(=O)NC7=O)C8=O)C6)C5)C4)cn3)C2(C)C)cc(C)c1C#N (some centres unmarked) [compound 175, N-((1r,3r)-3-(4-cyano-3,5-dimethylphenoxy)-2,2,4,4-tetramethylcyclobutyl)-5-(6-((((1r,3r)-3-((2-(2,6-dioxopiperidin-3-yl)-1,3-dioxoisoindolin-5-yl)oxy)cyclobutyl) (isopropyl)amino)methyl)-2-azaspiro[3.3]heptan-2-yl)pyrazine-2-carboxamide]
COc1cc(O[C@H]2C[C@H](N(CC3CCN(c4ncc(C(=O)N[C@H]5C(C)(C)[C@H](Oc6cc(C)c(C#N)c(C)c6)C5(C)C)cn4)CC3)CC(F)(F)F)C2)cc2c1C(=O)N(C1CCC(=O)NC1=O)C2=O (some centres unmarked) [compound 179, N-((1r,3r)-3-(4-cyano-3,5-dimethylphenoxy)-2,2,4,4-tetramethylcyclobutyl)-2-(4-((((1r,3r)-3-((2-(2,6-dioxopiperidin-3-yl)-7-methoxy-1,3-dioxoisoindolin-5-yl)oxy)cyclobutyl)(2,2,2-trifluoroethyl)amino)methyl)piperidin-1-yl)pyrimidine-5-carboxamide]
COc1cc(O[C@H]2C[C@H](N(CCN3CCOCC3)CC3CCN(c4ccc(C(=O)N[C@H]5C(C)(C)[C@H](Oc6cc(C)c(C#N)c(C)c6)C5(C)C)cc4)CC3)C2)cc2c1C(=O)N(C1CCC(=O)NC1=O)C2=O (some centres unmarked) [compound 180, N-((1r,3r)-3-(4-cyano-3,5-dimethylphenoxy)-2,2,4,4-tetramethylcyclobutyl)-4-(4-((((1r,3r)-3-((2-(2,6-dioxopiperidin-3-yl)-7-methoxy-1,3-dioxoisoindolin-5-yl)oxy)cyclobutyl)(2-morpholinoethyl)amino)methyl)piperidin-1-yl)benzamide]
Cc1cc(O[C@H]2C(C)(C)[C@H](NC(=O)c3ccc(CN4CCOC[C@H]4CN4CCN(c5ccc6c(c5)C(=O)N(C5CCC(=O)NC5=O)C6=O)CC4)cc3)C2(C)C)cc(C)c1C#N (stereo partly drawn) [compound 183, N-((1r,3R)-3-(4-cyano-3,5-dimethylphenoxy)-2,2,4,4-tetramethylcyclobutyl)-4-(((3R)-3-((4-(2-(2,6-dioxopiperidin-3-yl)-1,3-dioxoisoindolin-5-yl)piperazin-1-yl)methyl)morpholino)methyl)benzamide]
COCCN(CC1CCN(c2ccc(C(=O)N[C@H]3C(C)(C)[C@H](Oc4ccc(C#N)c(Cl)c4)C3(C)C)cc2)CC1)[C@H]1C[C@H](Oc2ccc3c(c2)C(=O)N(C2CCC(=O)NC2=O)C3=O)C1 (some centres unmarked) [compound 184, N-((1r,3r)-3-(3-chloro-4-cyanophenoxy)-2,2,4,4-tetramethylcyclobutyl)-4-(4-((((1r,3r)-3-((2-(2,6-dioxopiperidin-3-yl)-1,3-dioxoisoindolin-5-yl)oxy)cyclobutyl)(2-methoxyethyl)amino)methyl)piperidin-1-yl)benzamide]
Cc1cc(O[C@H]2C(C)(C)[C@H](NC(=O)c3ccc(N4CC(CN(C(C)C)[C@H]5C[C@H](Oc6ccc7c(c6)C(=O)N(C6CCC(=O)NC6=O)C7=O)C5)C4)cc3)C2(C)C)cc(C)c1C#N (some centres unmarked) [compound 187, N-((1r,3r)-3-(4-cyano-3,5-dimethylphenoxy)-2,2,4,4-tetramethylcyclobutyl)-4-(3-((((1r,3r)-3-((2-(2,6-dioxopiperidin-3-yl)-1,3-dioxoisoindolin-5-yl)oxy)cyclobutyl) (isopropyl)amino)methyl)azetidin-1-yl)benzamide]
Cc1cc(O[C@H]2C(C)(C)[C@H](NC(=O)c3ccc(N4CCC(CN5CCCC[C@@H]5COc5ccc6c(c5)C(=O)N(C5CCC(=O)NC5=O)C6=O)CC4)cc3)C2(C)C)cc(C)c1C#N (stereo partly drawn) [compound 192, N-((1r,3R)-3-(4-cyano-3,5-dimethylphenoxy)-2,2,4,4-tetramethylcyclobutyl)-4-(4-(((2R)-2-(((2-(2,6-dioxopiperidin-3-yl)-1,3-dioxoisoindolin-5-yl)oxy)methyl)piperidin-1-yl)methyl)piperidin-1-yl)benzamide]
Cc1cc(O[C@H]2C(C)(C)[C@H](NC(=O)c3ccc(N4CCC(CN5CCC[C@@H]5COc5ccc6c(c5)C(=O)N(C5CCC(=O)NC5=O)C6=O)CC4)cc3)C2(C)C)cc(C)c1C#N (stereo partly drawn) [compound 193, N-((1r,3R)-3-(4-cyano-3,5-dimethylphenoxy)-2,2,4,4-tetramethylcyclobutyl)-4-(4-(((2R)-2-(((2-(2,6-dioxopiperidin-3-yl)-1,3-dioxoisoindolin-5-yl)oxy)methyl)pyrrolidin-1-yl)methyl)piperidin-1-yl)benzamide]
CCN(CC1CCN(c2cnc(C(=O)N[C@H]3C(C)(C)[C@H](Oc4ccc(C#N)c(OC)c4)C3(C)C)cn2)CC1)[C@H]1C[C@H](Oc2ccc3c(c2)C(=O)N(C2CCC(=O)NC2=O)C3=O)C1 (some centres unmarked) [compound 194, N-((1r,3r)-3-(4-cyano-3-methoxyphenoxy)-2,2,4,4-tetramethylcyclobutyl)-5-(4-((((1r,3r)-3-((2-(2,6-dioxopiperidin-3-yl)-1,3-dioxoisoindolin-5-yl)oxy)cyclobutyl)(ethyl)amino)methyl)piperidin-1-yl)pyrazine-2-carboxamide]
Cc1cc(O[C@H]2C(C)(C)[C@H](NC(=O)c3ccc(CN4CCOC[C@@H]4CN4CCN(c5ccc6c(c5)C(=O)N(C5CCC(=O)NC5=O)C6=O)CC4)cc3)C2(C)C)cc(C)c1C#N (stereo partly drawn) [compound 196, N-((1r,3S)-3-(4-cyano-3,5-dimethylphenoxy)-2,2,4,4-tetramethylcyclobutyl)-4-(((3S)-3-((4-(2-(2,6-dioxopiperidin-3-yl)-1,3-dioxoisoindolin-5-yl)piperazin-1-yl)methyl)morpholino)methyl)benzamide]
Cc1cc(O[C@H]2C(C)(C)[C@H](NC(=O)c3ccc(N4CCC(CN5CCOC[C@H]5CCOc5ccc6c(c5)C(=O)N(C5CCC(=O)NC5=O)C6=O)CC4)cc3)C2(C)C)cc(C)c1C#N (stereo partly drawn) [compound 201, N-((1r,3R)-3-(4-cyano-3,5-dimethylphenoxy)-2,2,4,4-tetramethylcyclobutyl)-4-(4-(((3R)-3-(2-((2-(2,6-dioxopiperidin-3-yl)-1,3-dioxoisoindolin-5-yl)oxy)ethyl)morpholino)methyl)piperidin-1-yl)benzamide]

Source: US20260053932A1, “COMPOUNDS AND METHODS FOR THE TARGETED DEGRADATION OF ANDROGEN RECEPTOR AND ASSOCIATED METHODS OF USE” (Arvinas Operations, Inc., priority 2020, published 2026)
